This passage reports Ki, Recovery time and Activity results from ChEMBL document CHEMBL1124659 (J Med Chem, 1989).

As a reminder, the Ki is the equilibrium dissociation constant of an inhibitor or competing ligand from its target. Read a low Ki as a stronger hold on the target.

In experiment [1] the target is T1, Angiotensin II receptor (Rattus norvegicus, UniProt P29089+P25095+P35351).
T1 sequence (P29089 whole entry): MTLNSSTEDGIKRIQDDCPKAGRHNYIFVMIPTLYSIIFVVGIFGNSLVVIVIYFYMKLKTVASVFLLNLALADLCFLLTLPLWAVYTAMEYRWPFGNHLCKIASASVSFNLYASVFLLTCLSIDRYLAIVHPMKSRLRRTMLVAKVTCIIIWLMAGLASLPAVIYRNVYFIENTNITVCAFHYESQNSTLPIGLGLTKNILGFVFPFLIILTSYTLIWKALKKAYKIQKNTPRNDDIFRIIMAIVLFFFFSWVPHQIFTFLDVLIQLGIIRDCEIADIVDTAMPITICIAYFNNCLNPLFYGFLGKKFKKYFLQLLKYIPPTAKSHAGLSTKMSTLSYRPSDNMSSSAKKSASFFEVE
T1 sequence (P25095 whole entry): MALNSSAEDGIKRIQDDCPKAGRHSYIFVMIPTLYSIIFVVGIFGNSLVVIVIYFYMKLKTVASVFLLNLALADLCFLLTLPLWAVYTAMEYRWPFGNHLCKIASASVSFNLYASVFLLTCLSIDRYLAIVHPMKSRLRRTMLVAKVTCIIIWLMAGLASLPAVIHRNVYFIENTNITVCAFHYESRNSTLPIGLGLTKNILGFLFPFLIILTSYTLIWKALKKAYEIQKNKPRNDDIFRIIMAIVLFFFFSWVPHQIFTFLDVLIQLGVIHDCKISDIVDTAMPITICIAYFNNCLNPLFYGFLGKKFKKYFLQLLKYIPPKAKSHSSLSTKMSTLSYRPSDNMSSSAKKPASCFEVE
T1 sequence (P35351 whole entry): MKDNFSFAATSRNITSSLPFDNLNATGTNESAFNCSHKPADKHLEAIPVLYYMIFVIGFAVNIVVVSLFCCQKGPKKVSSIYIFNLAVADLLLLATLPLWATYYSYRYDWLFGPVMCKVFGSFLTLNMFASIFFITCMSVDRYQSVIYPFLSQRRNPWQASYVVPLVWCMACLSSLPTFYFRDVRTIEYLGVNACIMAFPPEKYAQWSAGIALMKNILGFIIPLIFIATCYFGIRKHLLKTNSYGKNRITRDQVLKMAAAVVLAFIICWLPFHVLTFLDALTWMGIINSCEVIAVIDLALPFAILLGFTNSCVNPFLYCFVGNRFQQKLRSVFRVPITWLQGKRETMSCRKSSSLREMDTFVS
The experiment is described as follows: Tested for inhibition of radioligand [Sar1,Ile5,8]AII binding to angiotensin II receptor in rat brain. It counts as tissue-based.

Experiment [2] addresses T1, Angiotensin II receptor. The experiment is described as follows: Tested for inhibition of radioligand [Sar1,Ile5,8]AII binding to angiotensin II receptor in rat uterus.
The species named for experiment [3] is Rattus norvegicus. The experiment is described as follows: Time period for the pressor response of angiotensin II to return to 50% of its treatment level at a compound dose of 10 ug. The experiment is classed as functional, organism-based.
For experiment [4], the species on record is Rattus norvegicus. The experiment is described as follows: Time period for the pressor response of angiotensin II to return to 50% of its treatment level at a compound dose of 60 ug. It counts as functional, organism-based.
For experiment [5], the target named is T2, Angiotensin II receptor (Rattus norvegicus) (UniProt P29089+P25095+P35351). The experiment is described as follows: Inhibitory activity was determined against Angiotensin II receptor in rat uterine preparations at a compound dose of 2 ng/mL.
Experiment [6] concerns the target T2, Angiotensin II receptor (Rattus norvegicus). The experiment is described as follows: Inhibitory activity was determined against Angiotensin II receptor in rat uterine preparations at a compound dose of 4 ng/mL.
Experiment [7] shares this target. The experiment can be described thus: Inhibitory activity was determined against Angiotensin II receptor in rat uterine preparations at a compound dose of 6 ng/mL.
The species named for experiment [8] is Rattus norvegicus. The experiment is described as follows: Time period for the pressor response of angiotensin II to return to 50% of its treatment level at a compound dose of 30 ug. It counts as functional, organism-based.
Experiment [9] is filed under the species Rattus norvegicus. The experiment can be described thus: Inhibitory activity was determined in rat uterine preparations at a compound dose of 4 ng/mL. The experiment is classed as functional.
The species named for experiment [10] is Rattus norvegicus. The experiment is described as follows: Inhibitory activity was determined in rat uterine preparations at a compound dose of 2 ng/mL. The experiment is classed as functional.
Experiment [11] is filed under the species Rattus norvegicus. The experiment is described as follows: Inhibitory activity was determined in rat uterine preparations at a compound dose of 6 ng/mL. The experiment is classed as functional.
For experiment [12], the species on record is Rattus norvegicus. The experiment is described as follows: Agonistic activity in rat uterine preparations. The experiment is classed as functional.

On to `CNCC(=O)N[C@@H](CCCN=C(N)N)C(=O)N[C@H](C(=O)N[C@@H](Cc1ccc(O)cc1)C(=O)N[C@H](C(=O)N[C@@H](Cc1c[nH]cn1)C(=O)N1CCC[C@H]1C(=O)N[C@@H](C(=O)O)C(c1ccccc1)c1ccccc1)C(C)C)C(C)C` [listing 1 of 2 here], for which the figures for the Ki on Angiotensin II receptor [1] and on Angiotensin II receptor [2] were 1.64 nM and 6.08 nM, respectively.
For the compound `CNCC(=O)N[C@@H](CCCN=C(N)N)C(=O)N[C@H](C(=O)N[C@@H](Cc1ccc(O)cc1)C(=O)N[C@H](C(=O)N[C@@H](Cc1c[nH]cn1)C(=O)N1CCC[C@@H]1C(=O)N[C@H](CC(C)C)C(=O)O)C(C)C)C(C)C`, the figures for the Recovery time in the experiment listed under Rattus norvegicus [3], in the experiment listed under Rattus norvegicus [4] and in the experiment listed under Rattus norvegicus [8] were 34 min, 83 min and 72 min, respectively. Also, the Activity amounted to 1.7 in experiment [5], 3.9 in experiment [6] and 22.2 in [7].
For `CNCC(=O)N[C@@H](CCCN=C(N)N)C(=O)N[C@H](C(=O)N[C@@H](Cc1ccc(O)cc1)C(=O)N[C@H](C(=O)N[C@@H](Cc1c[nH]cn1)C(=O)N1CCC[C@H]1C(=O)N[C@H](Cc1ccc(-c2ccccc2)cc1)C(=O)O)C(C)C)C(C)C` [listing 1 of 2 here], the results for the Ki at Angiotensin II receptor [1] and at Angiotensin II receptor [2] were 0.46 nM and 0.74 nM, respectively.
With `CNCC(=O)N[C@@H](CCCN=C(N)N)C(=O)N[C@H](C(=O)N[C@@H](Cc1ccc(O)cc1)C(=O)N[C@H](C(=O)N[C@@H](Cc1c[nH]cn1)C(=O)N1CCC[C@H]1C(=O)N[C@H](Cc1ccc(-c2ccccc2)cc1)C(=O)O)C(C)C)C(C)C` [listing 2 of 2 here], the values for the Activity in the experiment listed under Rattus norvegicus [9], in the experiment filed under Rattus norvegicus [10] and in the experiment listed under Rattus norvegicus [11] were 24.6, 7.2 and 44.7, respectively.
Turning to `CNCC(=O)N[C@@H](CCCN=C(N)N)C(=O)N[C@H](C(=O)N[C@@H](Cc1ccc(O)cc1)C(=O)N[C@H](C(=O)N[C@@H](Cc1c[nH]cn1)C(=O)N1CCC[C@H]1C(=O)N[C@@H](C(=O)O)C(c1ccccc1)c1ccccc1)C(C)C)C(C)C` [listing 2 of 2 here], the Activity in the experiment listed under Rattus norvegicus [12] worked out at 48%.
In the experiment filed under Rattus norvegicus [12], `CNCC(=O)N[C@@H](CCCN=C(N)N)C(=O)N[C@H](C(=O)N[C@@H](Cc1ccc(O)cc1)C(=O)N[C@H](C(=O)N[C@@H](Cc1c[nH]cn1)C(=O)N1CCC[C@H]1C(=O)N[C@H](C(=O)O)C(c1ccccc1)c1ccccc1)C(C)C)C(C)C` [listing 1 of 2 here] showed an Activity of 284%.
`CNCC(=O)N[C@@H](CCCN=C(N)N)C(=O)N[C@H](C(=O)N[C@@H](Cc1ccc(O)cc1)C(=O)N[C@H](C(=O)N[C@@H](Cc1c[nH]cn1)C(=O)N1CCC[C@H]1C(=O)N[C@@H](Cc1ccc(-c2ccccc2)cc1)C(=O)O)C(C)C)C(C)C` [listing 1 of 2 here]: the Ki worked out at 1 nM at Angiotensin II receptor [1] and 1.74 nM at Angiotensin II receptor [2].
Turning to `CNCC(=O)N[C@@H](CCCN=C(N)N)C(=O)N[C@H](C(=O)N[C@@H](Cc1ccc(O)cc1)C(=O)N[C@H](C(=O)N[C@@H](Cc1c[nH]cn1)C(=O)N1CCC[C@H]1C(=O)NC1(C(=O)O)Cc2ccccc2C1)C(C)C)C(C)C` [listing 1 of 2 here], the Activity in the experiment filed under Rattus norvegicus [9] turned out to be 16.2; in the experiment listed under Rattus norvegicus [10], 8.7; in the experiment filed under Rattus norvegicus [11] it was 31.8.
`CNCC(=O)N[C@@H](CCCN=C(N)N)C(=O)N[C@H](C(=O)N[C@@H](Cc1ccc(O)cc1)C(=O)N[C@H](C(=O)N[C@@H](Cc1c[nH]cn1)C(=O)N1CCC[C@H]1C(=O)N[C@@H](Cc1ccc(-c2ccccc2)cc1)C(=O)O)C(C)C)C(C)C` [listing 2 of 2 here]: the Activity in the experiment listed under Rattus norvegicus [9] turned out to be 71.7; in the experiment filed under Rattus norvegicus [10] it was 9.2; in the experiment listed under Rattus norvegicus [11], 208.2.
On to `CNCC(=O)N[C@@H](CCCN=C(N)N)C(=O)N[C@H](C(=O)N[C@@H](Cc1ccc(O)cc1)C(=O)N[C@H](C(=O)N[C@@H](Cc1c[nH]cn1)C(=O)N1CCC[C@H]1C(=O)N[C@H](C(=O)O)C(c1ccccc1)c1ccccc1)C(C)C)C(C)C` [listing 2 of 2 here], for which the figures for the Ki on Angiotensin II receptor [1] and on Angiotensin II receptor [2] were 0.85 nM and 1.23 nM, respectively.
For `CNCC(=O)N[C@@H](CCCN=C(N)N)C(=O)N[C@H](C(=O)N[C@@H](Cc1ccc(O)cc1)C(=O)N[C@H](C(=O)N[C@@H](Cc1c[nH]cn1)C(=O)N1CCC[C@H]1C(N)=O)C(C)C)C(C)C` the same measures were 9310 nM and 52.8 nM.
For `CNCC(=O)N[C@@H](CCCN=C(N)N)C(=O)N[C@H](C(=O)N[C@@H](Cc1ccc(O)cc1)C(=O)N[C@H](C(=O)N[C@@H](Cc1c[nH]cn1)C(=O)N1CCC[C@H]1C(=O)NC1(C(=O)O)Cc2ccccc2C1)C(C)C)C(C)C` [listing 2 of 2 here] the same measures were 1.82 nM and 1.52 nM.
For H-NRVYVHPF-OH [ANGIOTENSIN AMIDE], the figures for the Ki on Angiotensin II receptor [1] and at Angiotensin II receptor [2] were 1.64 nM and 5.48 nM, respectively. For the same compound, the Activity in the experiment listed under Rattus norvegicus [12] came to 100%.
